# PubChem BioAssay AID2253 (Southern Research Specialized Biocontainment Screening …, 2010)
# Test system: THP-1 viability, CellTiter-Glo luminescence, 72 h
# Test: human monocytic cell viability reduction – S. typhimurium screen hits, cytotoxicity control for Salmonella PhoP regulon inhibitors, dose response (AID 2253)
row,SMILES,EC50 [µM]
1,COc1ccc(OC)c(C2=Nn3c(nnc3-c3cc(OC)c(OC)c(OC)c3)SC2)c1,22.6
2,O=C(Nc1ccc(S(=O)(=O)N2CCCC2)cc1)c1ccc(CN2CCc3ccccc3C2)cc1,26.5
3,Clc1ccc(OCCCNCc2ccccc2)c(Br)c1,11.5
4,CCCCCNCC(=O)Nc1cccc(C(=O)Nc2cccc(C(F)(F)F)c2)c1,12.4
5,CCCc1nc2c(=O)n(C)c(=O)nc-2n(C)n1,2.36
6,CCCCCCCCCCOC(=O)Cn1c(COc2cccc(C)c2)[n+](C)c2ccccc21,4.4
7,Cc1ccc(-c2csc(NC(=O)C[n+]3cc(-c4ccc(C)cc4)n4c3CCC4)n2)cc1,8.54
8,Cc1ccc(Nc2cc(C)c3c(O)cccc3n2)cc1C,15.2
9,O=C(N/N=C/c1ccc(F)cc1)c1cc(-c2ccco2)nc2ccccc12,37.9
10,OC1(c2cccc(C(F)(F)F)c2)CCN(c2ncnc3c2[nH]c2ccccc23)CC1,17.6
11,CCCCCN=C(N)N/N=C/c1c[nH]c2ccc(OC)cc12,1.58
12,Cc1ccc(C(C[N+](=O)[O-])c2c(N)n(C)c(=O)n(C)c2=O)cc1 (stereo not given),34.2
13,ON=C1/C(=N\O)CC2(C/C1=N/O)OCCO2,34.5
14,COc1ccccc1Nc1nc(NCc2ccco2)c2ccccc2n1,16.2
15,Oc1ccccc1NCC(O)Cn1ccc2ccccc21 (stereo not given),28
16,C=CS(=O)(=O)c1ccc(Oc2ccc(S(=O)(=O)C=C)cc2)cc1,1.4
17,Nc1nonc1-n1nnc(C(=O)N/N=C/c2ccc(Br)cc2)c1CSC1=NCCS1,23.7
18,O=C(N/N=C/c1cc([N+](=O)[O-])ccc1O)C1CC1,26
19,Cc1ccc(Nc2cc(C)c3ccc(O)cc3n2)cc1C,17
20,O=C(CSc1nc(Nc2ccccc2)nc(N2CCOCC2)n1)Nc1ccc([N+](=O)[O-])cc1,37.1
21,COc1ccc2c(c1)nc(N)n2Cc1ccccc1,46.3
22,Cc1onc(-c2ccccc2)c1C(=O)NC(=S)NNC(=O)c1ccc(O)cc1O,1.87
23,CC(C)CCNCC(O)CON=C1c2ccccc2-c2ccccc21 (stereo not given),10.2

row,SMILES,EC50 [µM]
1,COc1ccccc1/C=C1\CCCC2=C1Nc1nnnn1C2c1ccccc1OC (stereo not given),19.6
2,OC(COc1ccc2ccccc2c1Br)Cn1ccnc1 (stereo not given),43.9
3,CCc1ccc(C(c2c(C)nn(-c3ccccc3)c2N)c2c(C)nn(-c3ccccc3)c2N)cc1,46.1
4,O=C(c1ccco1)[C@@H]1[C@@H]2C(=O)N(c3ccc(F)cc3)C(=O)[C@@H]2[C@H]2C=Cc3ccccc3N21,23.5
5,Cc1[nH]c2ccccc2c1C1=NNC(=Nc2ccc(F)cc2)SC1,12.6
6,O=C(Nc1cccc(Cl)c1)C1C2CCC3C(CCC21)C3(Cl)Cl (stereo not given),27.2
7,O=C(CN1CCCC1)N/N=C/c1c(O)ccc2ccccc12,3.43
8,O=C(N/N=C/c1cccc([N+](=O)[O-])c1O)c1cccs1,13.4
9,CC(C)CCNC(=S)Nc1ccc([N+](=O)[O-])cc1,16.5
10,O=C(Nc1ccc(Cl)c(Cl)c1)Nc1ccccc1O,21.1
11,Cc1ccc(C[n+]2cc(-c3ccc(Cl)cc3)n3c2CCC3)cc1,12
12,O=C(c1[nH]ncc1-c1ccc(Cl)cc1)C1CO1 (stereo not given),13.3
13,Cc1cc(-c2nnc(-c3ccccc3)c(-c3ccccc3)n2)c(C)o1,40.3
14,O=C(Nc1nc(-c2ccccn2)cs1)c1ccc(Cl)s1,0.8
15,CCOC(=O)N1CCN(S(=O)(=O)c2ccc(C(=O)NNc3nc4cc(C)cc(C)c4s3)cc2)CC1,2.88
16,COc1ccc(Nc2ccc3c(c2)=NC2(CCCCC2)[N+]=3[O-])cc1,4.59
17,CCCCCCCSc1cc(OC)c(CCN(C)C)cc1OC,14.1
18,COc1ccc2ccccc2c1/C=N/NC(=O)c1sc(N)c(C#N)c1C,30.1
19,COc1cccc2[nH]c3c(N4CCN(Cc5ccc6c(c5)OCO6)CC4)ncnc3c12,47.9
20,O=C(Cc1cccs1)Nc1cccc(-c2nc3cc4ccccc4cc3[nH]2)c1,12.5
21,Cc1ccc(C)c(-c2nc3ccc(N)cc3[nH]2)c1,10.5
22,CCCCCn1c(N)c(C(=O)NCc2cccs2)c2nc3ccccc3nc21,15.4
23,NC1=NC(=Nc2cccc(Cl)c2)c2ccccc21,32.4

row,SMILES,EC50 [µM]
1,CCCCCOc1ccc(Br)cc1CSC(=N)N,1.86
2,O=C(NC1CCCCC1)C(c1ccncc1)N(Cc1ccccc1)C(=O)c1ccc(-c2ccccc2)[nH]1 (stereo not given),22.5
3,OCCNCc1c(OCc2ccc(Cl)cc2)ccc2ccccc12,7.52
4,CN(C)c1ccc(O)c2c1CC1CC3[C@@H](N(C)C)C(=O)C(C(N)=O)=C(O)[C@]3(O)C(=O)C1=C2O (stereo not given in full),37
5,CCn1c2ccccc2c2cc(/C=N/NC(=O)c3ccccc3)ccc21,4.12
6,CCN1/C(=C/C=C/C=C/c2sc3ccccc3[n+]2CC)Sc2ccccc21,4.62
7,CC1N(C)c2cc(NC(=O)c3ccco3)ccc2C1(C)C (stereo not given),7.51
8,CN1CCN(C(c2ccc(C(F)(F)F)cc2)c2cc(Cl)c3cccnc3c2O)CC1 (stereo not given),2.96
9,Clc1ccc(OCCN2CCN(c3ncnc4sccc34)CC2)cc1,< 0.1
10,CCOC(=O)N1CCN(S(=O)(=O)c2ccc(C(=O)NNc3nc4c(C)cc(C)cc4s3)cc2)CC1,3.28
11,N=c1n(CC(=O)c2ccc([N+](=O)[O-])cc2)c2ccccc2n1Cc1ccccc1,14.3
12,COc1ccc(C(C[N+](=O)[O-])c2c(-c3ccccc3)cc3ccccn23)cc1 (stereo not given),12.8
13,CC1=NN(c2ccc(Cl)cc2)C(=O)C1C(c1cccc(O)c1)c1c(C)[nH]n(-c2ccc(Cl)cc2)c1=O (stereo not given),35.5
14,Cc1ccc(-n2c(C)cc(C3=NNC(=NC4CC4)SC3)c2C)cc1C,21.4
15,Cc1ccc(Nc2nc(NCc3ccco3)c3ccccc3n2)cc1,4.34
16,Cc1c2ccncc2c(C)c2c1[nH]c1ccccc12,2.53
17,c1csc(C2Nc3ccccc3-c3nc4ccccc4n32)c1 (stereo not given),33.7
18,O=c1c(Cl)c(Cl)cnn1Cc1ccccc1Cl,2.95
19,CCOC(=O)N1CCN(C(c2cccnc2)c2ccc3cccnc3c2O)CC1 (stereo not given),9.3
20,O=C(Nc1ccccc1)Nc1ncc([N+](=O)[O-])s1,15.8
21,O=C(N/N=C/c1cc(Cl)ccc1O)c1ccncc1,5.12
22,C/C(=N/Nc1nc(-c2ccccc2)cc(-c2ccc(F)cc2)n1)c1cccc(N)c1,18.1
23,CN1CCN(C(c2ccccn2)c2cc(Cl)c3cccnc3c2O)CC1 (stereo not given),9.2

row,SMILES,EC50 [µM]
1,Cc1cc(C(C)(C)CC(C)(C)C)ccc1OCCOCC[N+](C)(C)Cc1ccccc1,1.61
2,Cc1scc(C(=O)N/N=C/c2ccc([N+](=O)[O-])o2)c1C,19.9
3,CCN(CC)S(=O)(=O)c1cccc(NC(=O)Nc2cccc(C(F)(F)F)c2)c1,5.09
4,CN(C)c1ccc(/C=C/c2ccc3c4ccccc4ccc3[n+]2-c2ccccc2)cc1,0.26
5,c1ccc2c(c1)Sc1ccccc1N2CC1CN2CCC1CC2 (stereo not given),7.93
6,Cc1cccc(Sc2c([N+](=O)[O-])ncn2C)c1,32
7,Cc1ccccc1-n1nnnc1Sc1nnnn1-c1ccccc1,12
8,C#CCOCCOCCOCCNc1nc(N2CCN(C(=O)CCCCCCCCCCNC(=O)[C@H](CO)n3cc(CCCCCN)nn3)CC2)nc(N2CCN(C(=O)CCCCCCCCCCNC(=O)[C@H](CCCN=C(N)N)n3cc(C[C@@H](C)CC)nn3)CC2)n1,8.9
9,C(=Nc1ccc(Nc2ccccc2)cc1)c1ccc2ccccc2c1,25.8
10,CC1=C(C(=O)OCC2CCCO2)C(c2cccc(C(F)(F)F)c2)C2=C(CC(c3ccco3)CC2=O)N1 (stereo not given),42.7
11,C#CCn1cc(/C=N/Nc2nc3ccccc3[nH]2)c2ccccc21,6.14
12,CCCCCCCCCCOC(=O)C[N+](C)(C)C/C=C(/C)Cl,8.56
13,NCC12CC3CC(C1)CC(c1ccc(Br)cc1)(C3)C2,8.36
14,CCCCCCCCCCCCCCCC[N+](C)(C)CC,0.7
15,CC(C(=O)Nc1cc([N+](=O)[O-])ccc1Cl)N1CCN(c2ccccc2O)CC1 (stereo not given),25.6
16,C1CCC(C(CC2CCCCN2)C2CCCCC2)CC1 (stereo not given),5.45
17,CC(C)NCCCOc1ccc(Cl)cc1Br,44.7
18,O=c1ccc2ccc(Oc3ccc([N+](=O)[O-])cc3[N+](=O)[O-])cc2o1,7.86
19,CCN(CC)c1ccc(/C=N/Nc2nc3ccccc3[nH]2)c(O)c1,2.7
20,O=S1(=O)Nc2c(ccc3cccnc23)-c2ccccc21,0.69
21,CCc1ccc(CNc2ccc(O)cc2)cc1,17.1
22,O=c1[nH]c(NNC(=S)NCc2ccccc2)nc2c1C1(CCCCC1)Cc1ccccc1-2,45.1
23,Cc1nc2c(=O)n(C)c(=O)n(C)c2nc1Cl,7.48

row,SMILES,EC50 [µM]
1,COc1c(Cl)cnn(-c2ccc(C)cc2)c1=O,16.5
2,CCCCCCCCCC[n+]1cccc2c3ccccc3ccc21,0.6
3,COc1ccc(Nc2cc(C)nc(NCc3ccccc3)n2)cc1,10.1
4,O=S(=O)(Nc1ccc(N=Nc2ccc(O)c3ccccc23)cc1)c1ccccc1,22
5,COc1ccc(/C=N/Nc2cc(C)nc3ccccc23)cc1,7.59
6,O=C(N/N=C/c1c[nH]c2ccccc12)c1cc(-c2cccc3ccccc23)n[nH]1,13.8
7,Cc1cc(N/N=C/c2cccc(Cl)c2)nc(NCc2ccccc2)n1,23.5
8,COc1ccc(-c2c/c(=N\c3nc(-c4ccccc4)c(C)s3)c3ccccc3o2)cc1O,2.36
9,COc1cccc(/C=N/Nc2ncc(C(F)(F)F)cc2Cl)c1O,0.97
10,Cc1ccc(-c2c[n+](CC(=O)Nc3nc(-c4ccc(F)cc4)cs3)c3n2CCC3)cc1,9.65
11,CCCCCCCCNC(C)C(O)c1ccc(SC(C)C)cc1 (stereo not given),10.7
12,COc1ccc(/C=N/Nc2cc(C)nc3c(C)cccc23)cc1,7.25
13,Oc1[nH]c(=S)sc1/C=C1\C(c2ccccc2)=Nc2ccccc21,26
14,c1ccc2c(c1)ncn2CCCCOc1ccc2c(c1)CCC2,15
15,Cc1ccc2c(c1)[nH]c1c(N3CCN(Cc4ccccc4)CC3)ncnc12,18.9
16,CC(NCc1ccc(Cl)c(Cl)c1)C(O)c1ccccc1 (stereo not given),40
17,CC(O)CNCCNCc1c(OCc2ccccc2)ccc2ccccc12 (stereo not given),14.2
18,CC(CO)(CO)NCc1ccc(-c2ccccc2)cc1,15
19,Oc1c(I)cc(Cl)c2cccnc12,14.4
20,O=C(N/N=C/c1ccc(Sc2ccccn2)o1)c1cc2ccccc2cc1O,35.4
21,COc1ccc(NS(=O)(=O)c2cc(C)ccc2NC(=O)c2cc(C)oc2C)cc1,0.26
22,Cc1ccc2nc(C)c(CN3CCN(c4ccc([N+](=O)[O-])cc4Cl)CC3)n2c1,19.7
23,COc1ccc(N(C(=O)CCl)C(C(=O)NCCc2ccccc2)c2cccs2)cc1 (stereo not given),3.46
